Assay results: publication PMC6197228, “Inhibition of TBK1/IKKε Promotes Regeneration of Pancreatic β-cells” (Scientific Reports, 2018)

Tests used:
Assay type in all cases: biochemical
[1] = target: T1, IKKα (Homo sapiens, UniProt O15111); experiment: kinase profiling, dose response IC50 (selectivity)
T1 construct: gene CHUK
T1 sequence (O15111 1-745): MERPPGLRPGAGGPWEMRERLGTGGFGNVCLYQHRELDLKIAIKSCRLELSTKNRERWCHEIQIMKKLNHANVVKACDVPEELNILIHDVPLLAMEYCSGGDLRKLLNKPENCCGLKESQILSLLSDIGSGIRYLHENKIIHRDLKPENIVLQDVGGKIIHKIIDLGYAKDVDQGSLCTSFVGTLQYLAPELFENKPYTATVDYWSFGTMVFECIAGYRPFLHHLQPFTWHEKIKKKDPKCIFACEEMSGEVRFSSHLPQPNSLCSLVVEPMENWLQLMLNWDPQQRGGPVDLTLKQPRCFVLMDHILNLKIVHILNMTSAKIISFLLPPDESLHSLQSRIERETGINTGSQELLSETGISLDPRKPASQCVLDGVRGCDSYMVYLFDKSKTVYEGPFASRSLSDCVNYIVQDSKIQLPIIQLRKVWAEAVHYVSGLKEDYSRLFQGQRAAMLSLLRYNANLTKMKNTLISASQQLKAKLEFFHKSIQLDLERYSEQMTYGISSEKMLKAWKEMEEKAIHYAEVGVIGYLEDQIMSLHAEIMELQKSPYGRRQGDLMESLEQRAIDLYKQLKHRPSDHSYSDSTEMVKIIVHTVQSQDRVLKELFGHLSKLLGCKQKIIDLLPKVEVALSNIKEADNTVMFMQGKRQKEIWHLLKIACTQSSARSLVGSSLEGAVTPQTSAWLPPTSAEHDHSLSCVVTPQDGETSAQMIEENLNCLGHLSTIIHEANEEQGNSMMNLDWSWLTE

[2] = target: T2, TANK-binding kinase 1 (TBK1) (Homo sapiens, UniProt Q9UHD2); experiment: kinase profiling, dose response IC50
T2 sequence (Q9UHD2 1-729): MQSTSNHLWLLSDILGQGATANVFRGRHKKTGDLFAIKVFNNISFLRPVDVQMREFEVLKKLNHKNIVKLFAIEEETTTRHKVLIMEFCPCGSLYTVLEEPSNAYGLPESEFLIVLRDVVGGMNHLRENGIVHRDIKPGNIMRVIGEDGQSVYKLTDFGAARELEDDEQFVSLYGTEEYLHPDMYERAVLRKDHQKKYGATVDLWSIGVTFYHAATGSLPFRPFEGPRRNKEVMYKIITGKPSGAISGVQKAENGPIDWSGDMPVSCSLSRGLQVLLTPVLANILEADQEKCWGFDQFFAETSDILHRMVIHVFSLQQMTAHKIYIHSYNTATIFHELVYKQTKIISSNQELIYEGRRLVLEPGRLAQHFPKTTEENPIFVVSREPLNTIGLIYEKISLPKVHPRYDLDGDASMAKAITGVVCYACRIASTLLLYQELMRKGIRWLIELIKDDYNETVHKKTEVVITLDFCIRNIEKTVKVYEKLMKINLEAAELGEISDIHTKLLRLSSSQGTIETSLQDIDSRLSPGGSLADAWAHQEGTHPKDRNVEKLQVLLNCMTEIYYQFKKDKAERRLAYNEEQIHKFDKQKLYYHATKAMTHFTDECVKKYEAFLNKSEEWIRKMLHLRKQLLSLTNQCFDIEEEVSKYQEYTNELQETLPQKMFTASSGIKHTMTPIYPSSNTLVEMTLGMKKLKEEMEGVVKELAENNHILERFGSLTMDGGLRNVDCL

[3] = target: T3, IKKβ (Homo sapiens, UniProt O14920); experiment: kinase profiling, dose response IC50 (selectivity)
T3 construct: gene IKBKB
T3 sequence (O14920 1-756): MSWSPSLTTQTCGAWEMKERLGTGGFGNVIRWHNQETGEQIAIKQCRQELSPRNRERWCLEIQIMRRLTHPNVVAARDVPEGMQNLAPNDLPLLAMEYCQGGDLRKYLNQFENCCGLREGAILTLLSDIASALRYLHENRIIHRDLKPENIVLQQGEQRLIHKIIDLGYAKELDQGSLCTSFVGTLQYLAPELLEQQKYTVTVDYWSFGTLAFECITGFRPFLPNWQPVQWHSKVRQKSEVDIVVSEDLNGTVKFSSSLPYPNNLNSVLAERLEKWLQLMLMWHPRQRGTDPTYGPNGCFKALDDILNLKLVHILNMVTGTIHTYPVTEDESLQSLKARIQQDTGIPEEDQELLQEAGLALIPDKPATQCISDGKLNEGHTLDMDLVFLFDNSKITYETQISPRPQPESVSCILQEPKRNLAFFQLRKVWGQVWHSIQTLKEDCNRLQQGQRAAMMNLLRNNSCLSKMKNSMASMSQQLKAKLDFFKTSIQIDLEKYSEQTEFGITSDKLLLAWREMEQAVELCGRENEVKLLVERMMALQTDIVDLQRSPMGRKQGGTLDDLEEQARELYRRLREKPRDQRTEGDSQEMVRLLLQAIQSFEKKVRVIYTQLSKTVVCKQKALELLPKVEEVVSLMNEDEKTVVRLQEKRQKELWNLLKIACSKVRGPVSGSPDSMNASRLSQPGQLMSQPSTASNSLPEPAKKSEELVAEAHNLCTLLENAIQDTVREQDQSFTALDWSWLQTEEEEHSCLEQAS

[4] = target: T4, IκB kinase ε (IKKε) (Homo sapiens, UniProt Q14164); experiment: kinase profiling, dose response IC50
T4 construct: gene IKBKE
T4 sequence (Q14164 1-716): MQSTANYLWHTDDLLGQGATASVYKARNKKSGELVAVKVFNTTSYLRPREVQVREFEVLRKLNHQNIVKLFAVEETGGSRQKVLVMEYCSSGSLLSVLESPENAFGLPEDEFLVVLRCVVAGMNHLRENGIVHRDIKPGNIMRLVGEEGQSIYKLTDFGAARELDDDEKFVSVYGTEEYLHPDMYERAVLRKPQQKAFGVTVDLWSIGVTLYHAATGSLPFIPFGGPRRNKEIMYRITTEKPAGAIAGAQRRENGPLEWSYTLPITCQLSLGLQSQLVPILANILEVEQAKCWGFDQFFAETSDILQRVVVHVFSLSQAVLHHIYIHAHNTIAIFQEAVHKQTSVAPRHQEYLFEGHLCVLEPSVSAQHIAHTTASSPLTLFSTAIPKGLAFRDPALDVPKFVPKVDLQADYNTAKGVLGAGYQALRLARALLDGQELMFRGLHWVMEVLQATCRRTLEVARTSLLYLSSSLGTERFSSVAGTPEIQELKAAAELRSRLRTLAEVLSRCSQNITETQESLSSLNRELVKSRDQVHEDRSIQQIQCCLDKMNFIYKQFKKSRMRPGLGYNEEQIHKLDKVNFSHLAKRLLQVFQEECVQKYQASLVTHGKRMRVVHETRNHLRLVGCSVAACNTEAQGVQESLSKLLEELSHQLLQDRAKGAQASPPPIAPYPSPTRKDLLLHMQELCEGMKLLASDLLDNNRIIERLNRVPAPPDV

`O=C(O)/C=C/c1ccc2noc(-c3ccccc3)c2c1` [PIAA, (E)-3-(3-phenylbenzo[c]isoxazol-5-yl)acrylic acid] was tested, and the IC50 [1] was 47.2 µM, the IC50 [2] was 0.4 µM and the IC50 [3] was 50.5 µM. The IC50 [4] was ~1.07 µM.
